Here are results for 1 compound from US20240140895A1, “NOVEL AROMATIC MOLECULES” (XENIOPRO GmbH, priority 2018, published 2024).

What all share (format): cell-based
The test system of assay [1] is MDA-MB-231 cells (human breast carcinoma cells). Briefly: Proliferation assay (alamarBlue) with MDA-MB-231 cells. An excerpt:
(§1) The antiproliferative activities of compounds falling under formula (Ia), (Tb) and (Ic), respectively, were investigated on cells or cell lines originating from a disorder of the haematopoietic system, including the myeloid cell compartment and the lymphoid cell compartment (T-cells and B-cells), the neuroendocrine system, the cervix, the breast, the ovaries, the lung, the gastrointestinal tract, and the mucosal epithelium, as well as from the skin epithelium and from the muscle. To this end, HL-60 cells, NB-4 cells, HH cells, RPMI-8402 cells, TANOUE cells, TT cells, HeLa cells, MDA-MB-231 cells, FU-OV-1 cells, LOU-NH91 cells, 23132/87 cells, CAL-27 cells, BHY cells, SCC-25 cells, A-431 cells, human primary epidermal keratinocytes (HPEK), and C2C12 cells were seeded into 96-well plates suitable for fluorescence assays (CORNING #3598) at following initial cell numbers: 1000 cells per well for HL-60; 1000 cells per well for NB-4; 5000 cells per well for HH; 5000 cells per well for RPMI-8402; 1500 cells per well for TANOUE; 9000 cells per well for TT; 2000 cells per well for HeLa; 3000 cells per well for MDA-MB-231; 3000 cells per well for FU-OV-1; 4000 cells per well for LOU-NH91; 2000 cells per well for 23132/87; 2000 cells per well for CAL-27; 1500 cells per well for BHY; 1500 cells per well for SCC-25; 700 cells per well for A-431; 1000 cells per well for HPEK; 500 cells per well for C2-C12. The cells were treated with compounds at indicated final concentrations (diluted from the 1000× stock-solutions in DMSO to a final DMSO concentration of 0.1% v/v in H2O (Water For Injection, WFI, Fisherscientific #10378939)) or with the empty carrier DMSO at 0.1% v/v as control for 5 days. At day 5 after starting the treatments the cells were subjected to the alamarBlue® Proliferation Assay (Bio-Rad Serotec GmbH, BUF012B) according to the protocol of the manufacturer. The readout was taken with a multi-well plate-reader in the fluorescence mode with applying a filter for excitation at 560 nm (band width 10 nm) and for emission at 590 nm (band width 10 nm). Control treatments for growth inhibition with commercial compounds such as Methotrexate (MTREX) and Resveratrol (RES) were included on every plate. Some of the test compounds of the present invention were obtained and applied as their salts. According cases are indicated in the column “Specification” in Table 30 to Table 62 and by their sum formula in Table 63.
(§2) The assays were performed in duplicate or more replicates of independent single experiments each containing a six-fold replicate for every condition. For every individual plate, the measured fluorescence intensity values of the conditions with compound treatment were normalized against the corresponding equally weighted arithmetic mean of the fluorescence intensity values of the six DMSO treated control wells in order to obtain the relative values to a baseline level of 1.0.
(§3) Two independent outlier analyses were performed according to the methods by Peirce and Chauvenet (Ross, Journal of Engineering Technology 2003, 1-12). Outliers confirmed by at least one of the methods were excluded from the calculations but not more than one value out of six per compound within a single experiment. The weighted arithmetic mean (here abbreviated as AVEw) for each compound was calculated from the normalized values over all independent replicates of the single experiments comprising the six replicates each. The corresponding standard deviation for the weighted arithmetic mean was calculated according to the method described by Bronstein et al. (Bronstein, Semendjajew, Musiol, Muhlig, Taschenbuch der Mathematik, 5th edition 2001 (German), publisher: Verlag Harri Deutsch, Frankfurt am Main and Thun) and was combined with the Gauβ′ error propagation associated with the performed calculation for the normalization. The resulting standard deviation is herein referred to as “combined standard deviation”. […]

Assay [2] concerns 23132/87 cells (human gastric adenocarcinoma cells). Kind of assay: Proliferation assay (alamarBlue) with 23132/87 cells. Conditions: read-out: Activity Range: weighted arithmetic mean (AVEw) of normalized fluorescence intensity relative to DMSO basis level 1.0.
Source text: as §1, §2, §3

The subject of assay [3] is A-431 cells (human epidermoid squamous cell carcinoma cells). Kind of assay: Proliferation assay (alamarBlue) with A-431 cells.
Source text: as §1, §2, §3

Assay [4] concerns C2C12 cells (murine myoblast cells). Kind of assay: Proliferation assay (alamarBlue) with C2C12 cells. Conditions: Mus musculus, compound at 20 μM, read-out: Activity Range: weighted arithmetic mean (AVEw) of normalized fluorescence intensity, relative to DMSO basis level 1.0.
Source text: as §1, §2, §3

With `Oc1ccc(C=Cc2cc(O)cc(O)c2)cc1` [RES, resveratrol, reference compound], the results for the “Activity Range: weighted arithmetic mean (AVEw) of normalized fluorescence intensity relative to DMSO basis level 1.0” value in assay [1] (20 μM), in assay [3] (compound at 20 μM) and in assay [3] (control at 40 μM) were 0.6 ± 0.0, 0.6 ± 0.0 and 0.2 ± 0.0, respectively. For the same compound, the activity at 20 µM was 60% in assay [1] (Homo sapiens, read-out: Activity Range: weighted arithmetic mean (AVEw) of normalized fluorescence intensity relative to DMSO basis level 1.0); 50 ± 10% in assay [2]; 60% in assay [3] (Homo sapiens, 20 μM, read-out: Activity Range: weighted arithmetic mean (AVEw) of normalized fluorescence intensity relative to DMSO basis level 1.0); 80% in assay [4].
